Results on two compounds are retold here after ChEMBL document CHEMBL5137021, “Organotropic dendrons with high potency as HIV-1, HIV-2 and EV-A71 cell entry inhibitors” (Eur J Med Chem, 2022).

SMILES strings stand for the structures.

The test system of series [1] is Human immunodeficiency virus 2. As to the kind of experiment: Antiviral activity against HIV2 ROD infected in human MT4 cells assessed as protection against virus induced cytopatheic effect measured after 5 days by MTS assay. The format is functional, organism-based. The conditions noted are these: Human immunodeficiency virus 2, ROD, MT4, 120 h. (In general: Formazan colour is commonly taken as a measure of viable cells.)

In the next series the test system is rhinovirus A2. In words: Antiviral activity against Rhinovirus 2 infected in HeLa cells assessed as protection against virus induced cytopatheic effect measured after 5 days by MTS assay. The conditions noted are these: Rhinovirus A, 2, HeLa, 120 h. The format is functional, organism-based, Enterovirus.
The subject of series [2] is Enterovirus A71. As to the kind of experiment: Antiviral activity against EV-A71 genotype C4 TW/1956/05 infected in RD cells assessed as protection against virus induced cytopatheic effect measured after 5 days by MTS assay. The format is functional, organism-based. The conditions noted are these: Enterovirus A, genotype C4 TW/1956/05, RD, 120 h.
In a further series the test system is rhinovirus B14. As to the kind of experiment: Antiviral activity against Rhinovirus 14 infected in HeLa cells assessed as protection against virus induced cytopatheic effect measured after 5 days by MTS assay. The conditions noted are these: Rhinovirus B, 14, HeLa, 120 h. The format is functional, organism-based, Enterovirus.
The subject of series [3] is Enterovirus A71. In words: Antiviral activity against Enterovirus A71 BrCr infected in RD cells assessed as protection against virus induced cytopatheic effect measured after 5 days by MTS assay. The format is functional, organism-based. The conditions noted are these: Enterovirus A, 120 h.
The test system of series [4] is Human immunodeficiency virus 1. As to the kind of experiment: Antiviral activity against HIV1 NL4-3 infected in human MT4 cells assessed as protection against virus induced cytopatheic effect measured after 5 days by MTS assay. The format is functional, organism-based. The conditions noted are these: Human immunodeficiency virus 1, NL4-3, MT4, 120 h.
For series [5], the system named is Enterovirus A71. As to the kind of experiment: Antiviral activity against Enterovirus A71 BrCr harboring VP1_P246S mutant infected in RD cells assessed as protection against virus induced cytopatheic effect measured after 5 days by MTS assay. The format is functional, organism-based.
Another series deals with Coxsackievirus B3. In words: Antiviral activity against Coxsackievirus B3 Nancy strain infected in Vero cells assessed as protection against virus induced cytopatheic effect measured after 5 days by MTS assay. The conditions noted are these: Enterovirus B, 120 h. The format is functional, organism-based.
The test system of series [6] is Enterovirus A71. In words: Antiviral activity against EV-A71 genotype B5 TW/70902/08 infected in RD cells assessed as protection against virus induced cytopatheic effect measured after 5 days by MTS assay. The conditions noted are these: Enterovirus A, genotype B5 TW/70902/08, RD, 120 h. The format is functional, organism-based.
Series [7] deals with Enterovirus A71. As to the kind of experiment: Antiviral activity against EV-A71 genotype B2 11316 infected in RD cells assessed as protection against virus induced cytopatheic effect measured after 5 days by MTS assay. The conditions noted are these: Enterovirus A, genotype B2 11316, RD, 120 h. The format is functional, organism-based.
For series [8], the system named is Enterovirus A71. In words: Antiviral activity against EV-A71 genotype C2 H08300 461#812 infected in RD cells assessed as protection against virus induced cytopatheic effect measured after 5 days by MTS assay. The format is functional, organism-based. The conditions noted are these: Enterovirus A, genotype C2 H08300 461#812, RD, 120 h.
A short description of series [9]: Cytotoxicity against human RD cells assessed as cell viability measured after 5 days by MTS assay. The format is toxicity, cell-based. The conditions noted are these: time 5 day.
Series [10] deals with Enterovirus A71. As to the kind of experiment: Antiviral activity against Enterovirus A71 BrCr harboring VP1_S184T_P246S mutant infected in RD cells assessed as protection against virus induced cytopatheic effect measured after 5 days by MTS assay. The format is functional, organism-based.
The subject of the next series is enterovirus D68. In words: Antiviral activity against Enterovirus D68 CU70 infected in HeLa cells assessed as protection against virus induced cytopatheic effect measured after 5 days by MTS assay. The conditions noted are these: Enterovirus D, 120 h. The format is functional, organism-based.
The test system of series [11] is Enterovirus A71. In words: Antiviral activity against EV-A71 infected in RD cells assessed as protection against virus induced cytopatheic effect measured after 5 days by MTS assay. The format is functional, organism-based. The conditions noted are these: Enterovirus A, 120 h.
For series [12], the system named is Enterovirus A71. In words: Antiviral activity against EV-A71 genotype A BrCr infected in RD cells assessed as protection against virus induced cytopatheic effect measured after 5 days by MTS assay. The format is functional, organism-based. The conditions noted are these: 120 h.
The nature of series [13]: Cytotoxicity against human MT4 cells assessed as cell viability measured after 5 days by MTS assay. The format is toxicity, cell-based. The conditions noted are these: time 5 day.
Series [14] in a line: Selectivity index, ratio of CC50 for human RD cells to EC50 for antiviral activity against EV-A71. The format is toxicity. The conditions noted are these: read-out: Ratio CC50/EC50.
The subject of series [15] is Enterovirus A71. In words: Antiviral activity against Enterovirus A71 BrCr harboring VP1_S184T mutant infected in RD cells assessed as protection against virus induced cytopatheic effect measured after 5 days by MTS assay. The format is functional, organism-based.
A short description of series [16]: Selectivity index, ratio of CC50 for human MT4 cells to EC50 for antiviral activity against HIV-1 NL4.3. The format is toxicity. The conditions noted are these: read-out: Ratio CC50/EC50.
Series [17] is described as follows: Ex vivo biodistribution in ip dosed C57BL/6 mouse lung measured after 72 hrs by fluorescence analysis. The format is ADME, organism-based.
The nature of series [18]: Ex vivo biodistribution in ip dosed C57BL/6 mouse intestine measured after 72 hrs by fluorescence analysis. The format is ADME, organism-based.
Series [19] in a line: Ex vivo biodistribution in ip dosed C57BL/6 mouse intestine measured after 2 hrs by fluorescence analysis. The format is ADME, organism-based.
Series [20] can be described thus: Ex vivo biodistribution in iv dosed C57BL/6 mouse intestine measured after 2 hrs by fluorescence analysis. The format is ADME, organism-based.
A short description of series [21]: Ex vivo biodistribution in ip dosed C57BL/6 mouse lung measured after 24 hrs by fluorescence analysis. The format is ADME, organism-based.
The nature of series [22]: Ex vivo biodistribution in ip dosed C57BL/6 mouse intestine measured after 24 hrs by fluorescence analysis. The format is ADME, organism-based.

For `O=C(CCC(CCC(=O)NC(Cc1c(-c2cc(C(=O)O)cc(C(=O)O)c2)[nH]c2ccccc12)C(=O)O)(CCC(=O)NC(Cc1c(-c2cc(C(=O)O)cc(C(=O)O)c2)[nH]c2ccccc12)C(=O)O)NC(=O)CCCCCCNC(=O)Nc1cc(C(=O)O)cc(C(=O)O)c1)NC(Cc1c(-c2cc(C(=O)O)cc(C(=O)O)c2)[nH]c2ccccc12)C(=O)O` (stereo unspecified), the EC50 (commonly the concentration giving half of the maximal effect) is 50 nM in series [1]; more than 50000 nM in the series on rhinovirus A2; 6 nM in the series with Enterovirus A71 [2]; more than 50000 nM in the series on rhinovirus B14; 40 nM with Enterovirus A71 [3]; 1090 nM in [4]. In addition, the EC50 in the series with Enterovirus A71 [5] was 60 nM; in the series on Coxsackievirus B3 it was more than 50000 nM; in the series with Enterovirus A71 [6] it was 2 nM; in the series with Enterovirus A71 [7], 75 nM; with Enterovirus A71 [8] it was 91 nM; in the series with Enterovirus A71 [10], 300 nM. The EC50 in the series with enterovirus D68 was more than 50000 nM; with Enterovirus A71 [11], 50 nM; with Enterovirus A71 [12], 42 nM; in the series with Enterovirus A71 [15], 300 nM. For the same compound, the 50% cytotoxic concentration (CC50) at 120 h in [9] and in [13] was more than 100000 nM each time. For the same compound, the selectivity ratio in [14] was more than 2000; in series [16], more than 92.

For the compound `CC1(CCCCCCC(=O)NC(CCC(=O)NC(Cc2c(-c3cc(C(=O)O)cc(C(=O)O)c3)[nH]c3ccccc23)C(=O)O)(CCC(=O)NC(Cc2c(-c3cc(C(=O)O)cc(C(=O)O)c3)[nH]c3ccccc23)C(=O)O)CCC(=O)NC(Cc2c(-c3cc(C(=O)O)cc(C(=O)O)c3)[nH]c3ccccc23)C(=O)O)C(/C=C/C=C/C=C2/N(CCCS(=O)(=O)O)c3ccc(S(=O)(=O)O)cc3C2(C)C)=[N+](CCCS(=O)(=O)O)c2ccc(S(=O)(=O)O)cc21.[Na+].[Na+].[Na+].[Na+].[Na+].[Na+].[Na+].[Na+].[Na+].[Na+].[Na+].[Na+]` (stereo unspecified), the Drug uptake entry in [17], in series [18], in series [19], in series [20], in series [21] and in series [22] was “Active” throughout.
